Experimental data from paper PMC9923724, “Half sandwich-type osmium, ruthenium, iridium and rhodium complexes with bidentate glycosyl heterocyclic ligands induce cytostasis in platinum-resistant ovarian cancer cells and bacteriostasis in Gram-positive multiresistant bacteria” (Frontiers in Chemistry, 2023).

Assays:
[1] = system: primary dermal fibroblasts; experiment: SRB assay (48 h) on primary fibroblasts; type: cell-based; details: primary human dermal fibroblasts
Experimental: (§1) 3 × 10^3 A2780 cells, 2 × 10^3 ID8 cells and 4 × 10^3 primary fibroblasts were plated to 96 well plates. Cells were treated with the compounds in the concentrations indicated for either 4 h for an MTT assay or for 48 h for an SRB assay. Data is represented as average ± SD, from three biological replicates; individual assays were performed in duplicates. Values were normalized for vehicle treated cells, absorbance for vehicle treated cells equals to 1. Statistical significance was assessed using two-way ANOVA test comparing the free ligand and each complex as a complex-ligand pair. Before the test normality was assessed using the D’Agostino-Pearson test. The ID8 SRB Ir-7+L-7 dataset had lognormal distribution. […] All other datasets had normal distribution. For better visibility the p values are presented in an excel sheet at https://figshare.com/s/2c942a812caea8869a67. Non-linear regression was performed on the A2780 SRB and the ID8 SRB datasets.
Human primary dermal fibroblasts were cultured in low glucose DMEM (1 g/L glucose) medium supplemented with 20% fetal calf serum, 2 mM glutamine, 1% penicillin-streptomycin.
(§2) The assay was performed similar to ([Kovács et al., 2019]). Cells were seeded in 96 well plates the day before the assay. Cells were treated with the compounds for 48 h. Cells were fixed with 10% trichloroacetic acid (TCA). Fixed cells were washed in distilled water 3 times followed by staining with SRB (0.4 m/V% dissolved in 1% acetic acid) for 10 min. Stained cells were washed in 1% acetic acid 5 times; acetic acid was removed and cells were left to dry. Protein-bound SRB was released by adding 100 µl 10 mM Tris base. Plates were measured in a plate photometer (Thermo Scientific Multiscan GO spectrophotometer, Waltham, MA, United States) at 540 nm. On each plate wells were designed to contain vehicle-treated cells. In calculations the readings for these wells was considered as 1 and all readings were expressed relative to these values.

[2] = system: A2780 ovarian cancer cells; experiment: SRB assay (cytostasis, 48 h) on A2780 cells; type: cell-based; details: 48 h treatment
Experimental: (§3) First, we assessed a set of osmium complexes (similar to Ia [[Kacsir et al., 2022]) in Figure 1] and their sugar-derived ligands, in which the benzoyl protective groups on the carbohydrate moiety were replaced by aliphatic acyl groups of different chain length (straight chain C3-C7–CO). Osmium was selected as a central ion, since osmium complexes had the best biological activity in our previous studies ([Balázs et al., 2022]; [Kacsir et al., 2022]). These compounds were tested on A2780 ovarian cancer cells for toxicity and cytostasis. The therapy of ovarian cancer is centered around platinum compounds ([Brown et al., 2019]; [Sipos et al., 2021]), therefore, it was logical to use a cellular model of ovarian cancer for the initial testing of the compounds. Toxicity was assessed using the MTT assay that measures the activity of mitochondrial complex I. We chose 4 h long treatment as in an MTT assay this time point is suitable to detect rapid, direct toxicity. Cytostasis was assessed after 48 h of treatment using the SRB assay that assesses protein content that corresponds to cell count. The characteristics of the compounds are detailed in Table 2.
(§4) 3 × 10^3 A2780 cells, were plated to 96 well plates. Cells were treated with the compounds in the concentrations indicated for either 4 h for an MTT assay or for 48 h for an SRB assay. Data is represented as average ± SD, from three biological replicates; individual assays were performed in duplicates. Values were normalized for vehicle treated cells, absorbance for vehicle treated cells equals to 1. […] Except for the Os-6 complex, Two-way ANOVA test was performed and all values were compared with each other (Tukey’s post hoc test). […] Non-linear regression was performed on the data.
as §1, §2
Statistical analysis was performed using 8.0.1 version of Graphpad Prism. Values were tested for normal distribution using the D’Agostino and Pearson normality test. When necessary, values were log normalized or were normalized using the Box-Cox normalization method ([Box and Cox, 1964]) as indicated in the figure captions. […]

[3] = system: A2780 ovarian cancer cells; experiment: MTT reduction assay (rapid toxicity, 4 h) on A2780 cells; type: cell-based; details: 4 h treatment
Experimental: as §3, §4, §1
MTT reduction assay measures the activity of mitochondrial complex I and can be used to detect toxicity ([Virág et al., 1998]; [Henslee et al., 2016]). The assay was performed similar to ([Bakondi et al., 2003]). Briefly, cells were plated in 96 well plates the day before the assay. Cells were treated with the compounds for 4 h, then MTT was added in 0.5 mg/ml final concentration and cells were incubated at 37°C in a cell incubator. Culture media was removed and the reduced MTT dye was dissolved in dimethyl-sulfoxide (DMSO) and plates were measured in a plate photometer (Thermo Scientific Multiscan GO spectrophotometer, Waltham, MA, United States) at 540 nm. On each plate wells were designed to contain untreated/vehicle-treated cells. In calculations the readings for these wells was considered as 1 and all readings were expressed relative to these values.

[4] = system: vancomycin-resistant Enterococcus (VRE) clinical isolates; experiment: Broth microdilution MIC, clinical VRE isolates; type: cell-based, E. faecium; details: for MIC against clinical VRE isolates (as a group): 3 clinical VRE isolates; for MIC, VRE 25 051: clinical isolate 25 051, nephrostoma; for MIC, VRE 25 051 / MIC, VRE 25 498 / MIC, VRE 27 085: 2018; for MIC, VRE 25 498: clinical isolate 25 498, rectal swab; for MIC, VRE 27 085: clinical isolate 27 085, wound
Experimental: The MIC values of the complexes were determined against the reference strains of S. aureus (ATCC29213) and E. faecalis. (ATCC29212) and against clinical VRE and MRSA isolates by microdilution assays (repeated at least twice in duplicates) as described in Materials and Methods. The numbers indicate how many isolates were susceptible to the compound out of those tested; i.e., 1/6 stands for 1 isolate was susceptible out of 6 tested. […] Cells were harvested and lysed. Cellular proteins was separated on a 10% SDS-PAGE gel and were blotted. Blots were probed with 4HNE antibody (top blot), the lower blot was stained with amido black. Arrows point at band of interest. Experiments were repeated three times and a representative blot is shown. On the blots brightness and contrast were adjusted. […] Each was matched to a substance and strain by its position over the x-axis categories. / Ir-7: ND and 0/3 (left plot) and ND and 0/6 (right plot) were matched to E. faecalis/VRE and S. aureus/MRSA by position only.
We used a set of clinical isloates of S. aureus and E. faecium that were collected at the Medical Center of the University of Debrecen (Hungary) between 01. 01. 2018.—31. 12. 2020. The clinical isolates were identified using a Microflex MALDI-TOF mass spectrometer (Bruker, Billerica, MA, United States). Antibiotic susceptibility of the isolates was tested following the European Committee on Antimicrobial Susceptibility Testing ([EUCAST, 2021]) guidelines valid at the time of collection.
Microdilution experiments were performed according to the standards of EUCAST ([EUCAST, 2021]). […] The inoculated plates were incubated for 24 h at 37°C then were assessed visually. […] All experiments were performed at least twice in duplicates.

Compound	Fibroblast SRB Max. (maximal inhibition) [1]	A2780 SRB IC50 [2]	A2780 SRB Max. (maximal inhibition) [2]	IC50 [2]	A2780 MTT Max. (maximal inhibition) [3]	MIC against clinical VRE isolates (as a group) [4]	MIC, VRE 25 051 [4]	MIC, VRE 25 498 [4]	MIC, VRE 27 085 [4]
Cc1ccc(C(C)C)cc1.F[P-](F)(F)(F)(F)F.O=C(OCC1OC(n2cc(-c3ccc4ccccc4n3)nn2)C(OC(=O)c2ccccc2)C(OC(=O)c2ccccc2)C1OC(=O)c1ccccc1)c1ccccc1.[Cl][Ru+] (mixture of isomers) [Ru-7]	50.04%	submicromolar or low micromolar	>90%	847 nM	23.4%	5 µM	5 µM	5 µM	5 µM
Cc1c(C)c(C)[c-](C)c1C.F[P-](F)(F)(F)(F)F.O=C(OCC1OC(n2cc(-c3ccc4ccccc4n3)nn2)C(OC(=O)c2ccccc2)C(OC(=O)c2ccccc2)C1OC(=O)c1ccccc1)c1ccccc1.[Cl][Ir+2] (mixture of isomers) [Ir-7]	42.83%	submicromolar or low micromolar	>90%	891 nM	23.2%	no activity	40< µM	40< µM	40< µM
Cc1ccc(C(C)C)cc1.F[P-](F)(F)(F)(F)F.O=C(OCC1OC(n2cc(-c3ccc4ccccc4n3)nn2)C(OC(=O)c2ccccc2)C(OC(=O)c2ccccc2)C1OC(=O)c1ccccc1)c1ccccc1.[Cl][Os+] (mixture of isomers) [Os-7]	48.94%	submicromolar or low micromolar	>90%	578 nM	33.0%	10 µM	10 µM	10 µM	10 µM
